Reference: article PMC13352219, “Analysis of glutamine synthetase target‐site mutations and their role in endowing glufosinate‐ammonium resistance” (Pest Management Science, 2026)
Read-outs that look alike come from different tables or passages of the source.

Assays:
[1] = target: Eleusine indica GS1.1 S59G; experiment: GS enzyme inhibition assay, ELEIN GS1.1 S59G; format: biochemical
[2] = tested on: Amaranthus palmeri cytosolic GS1.1 WT; experiment: GS enzyme inhibition assay, GS1.1 WT; format: biochemical; conditions: for IC50: read-out: Glufosinate‐ammonium IC50
Method: GS activity was determined spectrophotometrically following the Sigma‐Aldrich enzymatic assay protocol. The reaction couples the ATP‐dependent conversion of L‐glutamate and ammonium to L‐glutamine with pyruvate kinase (PK) and L‐lactate dehydrogenase (LDH), such that oxidation of β‐NADH to β‐NAD^+ can be monitored at 340 nm. Recombinant GS from A. palmeri was expressed in E. coli, purified by affinity chromatography, and quantified by the Bradford method using bovine serum albumin as standard. Assays were conducted at 37 °C in 3 mL total volume containing 34.1 mM imidazole (pH 7.1), 102 mM sodium L‐glutamate, 8.5 mM ATP, 1.1 mM phosphoenolpyruvate, 60 mM MgCl₂, 18.9 mM KCl, 45 mM NH₄Cl, 0.25 mM β‐NADH, 28 U PK, 40 U LDH, and 0.4–0.8 U recombinant GS. Reaction mixtures were equilibrated to 37°C and initiated by the addition of enzyme, and the decrease in absorbance at 340 nm was recorded for 5–10 min; only the linear portion of the curve was used for activity calculations. For inhibition assays, GFA was added directly to the reaction mixture to final concentrations ranging from 10^−8 M to 10^−2 M, using 2.5‐fold serial dilutions, with a no‐inhibitor control included in each run. Activity was calculated using an extinction coefficient for NADH of 6.22 mM^−1 cm^−1 and expressed as units per mg protein, where one unit corresponds to the formation of 1 μmol of L‐glutamine in […] at pH 7.1 and 37 °C. Background activity was corrected by including blank assays without GS. Percent inhibition was calculated relative to untreated (positive) and no‐enzyme (negative) controls. Assays were conducted in triplicates. IC₅₀ values (concentration of inhibitor reducing GS activity by 50%) were estimated by nonlinear regression (three‐ or four‐parameter log‐logistic models). Resistance factors were calculated by dividing the IC₅₀ of each mutant variant by that of wild‐type GS.

[3] = tested on: Amaranthus palmeri cytosolic GS1.1 E131K; experiment: GS enzyme inhibition assay, GS1.1 E131K; format: biochemical
Method: (§1) GS activity was determined spectrophotometrically following the Sigma‐Aldrich enzymatic assay protocol. The reaction couples the ATP‐dependent conversion of L‐glutamate and ammonium to L‐glutamine with pyruvate kinase (PK) and L‐lactate dehydrogenase (LDH), such that oxidation of β‐NADH to β‐NAD^+ can be monitored at 340 nm. Recombinant GS from A. palmeri was expressed in E. coli, purified by affinity chromatography, and quantified by the Bradford method using bovine serum albumin as standard. […] Reaction mixtures were equilibrated to 37°C and initiated by the addition of enzyme, and the decrease in absorbance at 340 nm was recorded for 5–10 min; only the linear portion of the curve was used for activity calculations. […] Activity was calculated using an extinction coefficient for NADH of 6.22 mM^−1 cm^−1 and expressed as units per mg protein, where one unit corresponds to the formation of 1 μmol of L‐glutamine in […] at pH 7.1 and 37 °C. […] Percent inhibition was calculated relative to untreated (positive) and no‐enzyme (negative) controls. […] Resistance factors were calculated by dividing the IC₅₀ of each mutant variant by that of wild‐type GS.

[4] = tested on: Amaranthus palmeri cytosolic GS1.1 E131Q; experiment: GS enzyme inhibition assay, GS1.1 E131Q; format: biochemical
Method: as §1

[5] = tested on: Amaranthus palmeri cytosolic GS1.1 E131V; experiment: GS enzyme inhibition assay, GS1.1 E131V; format: biochemical
Method: as §1

[6] = tested on: Amaranthus palmeri cytosolic GS1.1 E192K; experiment: GS enzyme inhibition assay, GS1.1 E192K; format: biochemical
Method: as §1

[7] = tested on: Amaranthus palmeri cytosolic GS1.1 E192Q; experiment: GS enzyme inhibition assay, GS1.1 E192Q; format: biochemical
Method: as §1

[8] = tested on: Amaranthus palmeri cytosolic GS1.1 G245C; experiment: GS enzyme inhibition assay, GS1.1 G245C; format: biochemical
Method: as §1

[9] = tested on: Amaranthus palmeri cytosolic GS1.1 G245S; experiment: GS enzyme inhibition assay, GS1.1 G245S; format: biochemical
Method: as §1

[10] = tested on: Amaranthus palmeri cytosolic GS1.1 H249R; experiment: GS enzyme inhibition assay, GS1.1 H249R; format: biochemical
Method: as §1

[11] = tested on: Amaranthus palmeri cytosolic GS1.1 R291G; experiment: GS enzyme inhibition assay, GS1.1 R291G; format: biochemical
Method: as §1

[12] = tested on: Amaranthus palmeri cytosolic GS1.1 R291L; experiment: GS enzyme inhibition assay, GS1.1 R291L; format: biochemical
Method: as §1

[13] = tested on: Amaranthus palmeri cytosolic GS1.1 R311P; experiment: GS enzyme inhibition assay, GS1.1 R311P; format: biochemical
Method: as §1

[14] = tested on: Amaranthus palmeri cytosolic GS1.1 R311Q; experiment: GS enzyme inhibition assay, GS1.1 R311Q; format: biochemical
Method: as §1

[15] = tested on: Amaranthus palmeri cytosolic GS1.1 K36A; experiment: GS enzyme inhibition assay, GS1.1 K36A; format: biochemical
Method: as §1

[16] = tested on: Amaranthus palmeri cytosolic GS1.1 D56C; experiment: GS enzyme inhibition assay, GS1.1 D56C; format: biochemical
Method: as §1

[17] = tested on: Amaranthus palmeri cytosolic GS1.1 S59N; experiment: GS enzyme inhibition assay, GS1.1 S59N; format: biochemical
Method: as §1

[18] = tested on: Amaranthus palmeri cytosolic GS1.1 G155F; experiment: GS enzyme inhibition assay, GS1.1 G155F; format: biochemical
Method: as §1

[19] = tested on: Amaranthus palmeri cytosolic GS1.1 Y158A; experiment: GS enzyme inhibition assay, GS1.1 Y158A; format: biochemical
Method: as §1

[20] = tested on: Amaranthus palmeri cytosolic GS1.1 Y158T; experiment: GS enzyme inhibition assay, GS1.1 Y158T; format: biochemical
Method: as §1

[21] = tested on: Amaranthus palmeri cytosolic GS1.1 C159H; experiment: GS enzyme inhibition assay, GS1.1 C159H; format: biochemical
Method: as §1

[22] = tested on: Amaranthus palmeri cytosolic GS1.1 A163Y; experiment: GS enzyme inhibition assay, GS1.1 A163Y; format: biochemical
Method: as §1

[23] = target: Amaranthus palmeri cytosolic GS1.1 G245P; experiment: GS enzyme inhibition assay, GS1.1 G245P; format: biochemical; conditions: read-out: Glufosinate‐ammonium IC50
Method: as §1

[24] = tested on: Amaranthus palmeri cytosolic GS1.1 E297A; experiment: GS enzyme inhibition assay, GS1.1 E297A; format: biochemical
Method: as §1

[25] = tested on: Amaranthus palmeri cytosolic GS1.1 E297S; experiment: GS enzyme inhibition assay, GS1.1 E297S; format: biochemical; conditions: IC50 variant / IC50 WT
Method: as §1

[26] = tested on: Amaranthus palmeri cytosolic GS1.1 R316A; experiment: GS enzyme inhibition assay, GS1.1 R316A; format: biochemical
Method: as §1

[27] = tested on: Amaranthus palmeri cytosolic GS1.1 R316E; experiment: GS enzyme inhibition assay, GS1.1 R316E; format: biochemical
Method: as §1

[28] = tested on: GFA‐resistant E. indica population; set-up: method as in ref 10 = [10]; 10 Jalaludin A , Ngim J , Bakar BH and Alias Z , Preliminary findings of potentially resistant goosegrass ( Eleusine indica ) to glufosinate ammonium in Malaysia . Weed Biol Manage 10 : 256 – 260 ( 20); conditions: cited from earlier work
[29] = read-out: Glufosinate‐ammonium IC50

For CP(=O)(O)CCC(N)C(=O)O (stereo not drawn) [Glufosinate‐ammonium], the IC50 [1] was 19 µM, the “Glufosinate‐ammonium % Inhibition at saturation 10 000 μM” value (from here on “Glufosinate‐ammonium % Inhibition”) ([2]; 10 000 μM) was 100% and the “Resistance index (RI)” value ([2]; IC50 variant / IC50 WT) was 1. The IC50 ([2]; Table 2 panel) was 22.5 µM, the IC50 ([2]; Table 3 panel) was 21.7 µM and the “Glufosinate‐ammonium % Inhibition” value ([3]; 10 000 μM) was 0%. For the same molecule, the IC50 [3, 29] was over 10000 µM, the “Glufosinate‐ammonium % Inhibition” value ([4]; 10 000 μM) was 6.5% and the IC50 [4, 29] was over 10000 µM. For the same molecule, the “Glufosinate‐ammonium % Inhibition” value ([5]; 10 000 μM) was 6.6%, the IC50 [5, 29] was over 10000 µM and the “Glufosinate‐ammonium % Inhibition” value ([6]; 10 000 μM) was 1.3%. The IC50 [6, 29] was over 10000 µM, the “Glufosinate‐ammonium % Inhibition” value ([7]; 10 000 μM) was 0% and the IC50 [7, 29] was over 10000 µM. The “Glufosinate‐ammonium % Inhibition” value ([8]; 10 000 μM) was 0%, the IC50 [8, 29] was over 10000 µM and the “Glufosinate‐ammonium % Inhibition” value ([9]; 10 000 μM) was 9%. For the same molecule, the IC50 [9, 29] was over 10000 µM, the “Glufosinate‐ammonium % Inhibition” value ([10]; 10 000 μM) was 29% and the IC50 [10, 29] was over 10000 µM. The “Glufosinate‐ammonium % Inhibition” value ([11]; 10 000 μM) was 0%, the IC50 [11, 29] was over 10000 µM and the “Glufosinate‐ammonium % Inhibition” value ([12]; 10 000 μM) was 0%. The IC50 [12, 29] was over 10000 µM, the “Glufosinate‐ammonium % Inhibition” value ([13]; 10 000 μM) was 0% and the IC50 [13, 29] was over 10000 µM. The “Glufosinate‐ammonium % Inhibition” value ([14]; 10 000 μM) was 1.9%, the IC50 [14, 29] was over 10000 µM and the “Resistance index (RI)” value ([15]; IC50 variant / IC50 WT) was 11.5. The IC50 [15, 29] was 248 µM, the “Resistance index (RI)” value ([16]; IC50 variant / IC50 WT) was 0.2 and the IC50 [16, 29] was 3.9 µM. For the same molecule, the “Resistance index (RI)” value ([17]; IC50 variant / IC50 WT) was 1.8, the IC50 [17, 29] was 39.5 µM and the “Resistance index (RI)” value ([18]; IC50 variant / IC50 WT) was 11.7. For the same molecule, the IC50 [18, 29] was 254 µM, the “Resistance index (RI)” value ([19]; IC50 variant / IC50 WT) was 64.6 and the IC50 [19, 29] was 1400 µM. The “Resistance index (RI)” value ([20]; IC50 variant / IC50 WT) was 3.5, the IC50 [20, 29] was 76 µM and the “Resistance index (RI)” value ([21]; IC50 variant / IC50 WT) was 186.5. For the same molecule, the IC50 [21, 29] was 4050 µM, the “Resistance index (RI)” value ([22]; IC50 variant / IC50 WT) was 2.5 and the IC50 [22, 29] was 54 µM. The IC50 [23] was 247 µM, the “Resistance index (RI)” value ([24]; IC50 variant / IC50 WT) was 0.3 and the IC50 [24, 29] was 6.9 µM. The “Resistance index (RI)” value [25] was 0.0, the “Resistance index (RI)” value ([26]; IC50 variant / IC50 WT) was 14.4 and the IC50 [26, 29] was 313 µM. The “Resistance index (RI)” value ([27]; IC50 variant / IC50 WT) was 9.1, the IC50 [27, 29] was 197 µM and the resistance [28] was “up to 20 fold”.
